Experiments:
[1] = test system: human lung tumor organoids; assay: Tumor organoids killing assay with autologous tumor-reactive T cells; format: cell-based; settings: tumor-reactive T cells pre-treated with 10 nmol/L docetaxel
Description: To express luciferase in the tumor organoids, we used pLenti CMV Puro LUC (w168-1; Plasmid #17477; Addgene). Tumor-reactive PBMC were thawed in pre-warmed T cell medium and incubated for 15 minutes with 25 U/ml Benzonase. After washing, cells were re-suspended at 2−3×10^6 cells/ml in T cell medium and cultured overnight at 37° C. The day after, PBMC were incubated with (or without) 10 nmol/L docetaxel for 48 hr. To determine the sensitivity of tumor and healthy organoids to T cell-mediated killing, flatbottom non-tissue culture treated plates were coated with 5 μg/ml αCD28 and kept at 4° C. overnight prior to co-culture. Tumor organoids were previously transduced with luciferase reporter gene. Organoids were isolated from Geltrex 48 hours prior to co-culture and stimulated with 200 ng/ml IFNγ for 24 hr prior to co-culture. The next day, part of the organoids was dissociated to single cells and counted using a hemocytometer. […] At the end of the 72 hours, tumor and healthy organoids viability in the different conditions was evaluated by microscopy, taking bright-field pictures at 5 and 10× magnification. Tumor cell viability in the different conditions was also measured by luciferase reporter assay using 3 μg/mL luciferin. Luminescence was measured with a Tecan reader (1,000 ms exposure).

[2] = test system: MMTV-PyMT organoids expressing OVA; assay: Co-culture of OT I T cells with MMTV-PyMT organoids expressing OVA (cleaved-caspase 3); format: cell-based, mouse; settings: OT I T cells pre-treated with docetaxel vs control
Description: Experiments were approved by the Animal Welfare Committee of the Netherlands Cancer Institute and were performed in accordance with national guidelines. Mice were housed in individually ventilated cage (IVC) systems under specific pathogen-free conditions and received chow and water ad libitum. FVB/NRj females (Janvier), C57BL/6-Tg (TcraTcrb) 1100Mjb/J females (OT I mice, Jackson laboratory), and ROSA26mTmG FVB females (NKI) were used at 8-20 weeks of age at the time of fat pad injection of tumor organoids or spleen isolation.
For T cells isolated from mouse mammary tumors, T cells were directly co-cultured with tumor organoids after FACS isolation. For T cells isolated from the spleen, T cells were treated for 72 h with PBS or with docetaxel (docetaxel 10 nmol/L), in the presence or absence of an LCKi (10 μmol/L, Merck Millipore, Cat. No. 213743-31-8). To evaluate the docetaxel-specificity of our observations, T cells were treated with paclitaxel 10 nmol/L or carboplatin 50 μmol/L for 72 h. Subsequently, T cells were collected and washed 3 times in PBS to remove residual chemotherapy or LCKi.
Organoids were fixed in 4% paraformaldehyde in PBS for 20 min at room temperature, followed by permeabilization in 0.2% TritonX-100 in PBS for 15 min at room temperature. […]

CC(=O)O[C@@]12CO[C@@H]1C[C@H](O)[C@@]1(C)C(=O)[C@H](O)C3=C(C)[C@@H](OC(=O)[C@H](O)[C@@H](NC(=O)OC(C)(C)C)c4ccccc4)C[C@@](O)([C@@H](OC(=O)c4ccccc4)[C@H]21)C3(C)C [docetaxel]
anti-tumor capacity against tumor organoids (organoid viability, luciferase) [1]: increased their anti-tumor capacity | cytotoxicity of OT I T cells (apoptosis in OVA+ organoids) [2]: further enhanced
